In brackets after ≈: the same amount, converted by molar mass.
How the values were obtained:
Format in all cases: functional
[1] = test system: Meloidogyne incognita; assay: Average percent inhibition of nematode pest Meloidogyne incognita induced root galling of treated sand medium at 0.5 ppm
[2] = test system: Meloidogyne incognita; assay: Average percent inhibition of nematode pest Meloidogyne incognita induced root galling of treated sand medium at 125 ppm
[3] = test system: Meloidogyne incognita; assay: Average percent inhibition of nematode pest Meloidogyne incognita induced root galling of treated sand medium at 7.8 ppm
[4] = test system: Meloidogyne incognita; assay: Average percent inhibition of nematode pest Meloidogyne incognita induced root galling of treated soil medium at 0.5 ppm
[5] = test system: Meloidogyne incognita; assay: Average percent inhibition of nematode pest Meloidogyne incognita induced root galling of treated soil medium at 125 ppm
[6] = test system: Meloidogyne incognita; assay: Average percent inhibition of nematode pest Meloidogyne incognita induced root galling of treated soil medium at 7.8 ppm
[7] = test system: Meloidogyne incognita; assay: Lethal concentration required for inhibition of nematode induced root galling of treated sand medium to that of untreated soil medium

C=C1CC1CCSC1=NCCS1 (stereo not drawn)
inhibition at 0.5 ppm [1]: 50% | inhibition at 125 ppm [2]: 100% | inhibition at 7.8 ppm [3]: 100% | inhibition at 0.5 ppm [4]: 0% | inhibition at 125 ppm [5]: 100% | inhibition at 7.8 ppm [6]: 25%

C=C1CC1CC(=O)O (stereo not drawn)
inhibition at 0.5 ppm [1]: 90% | inhibition at 125 ppm [2]: 100% | inhibition at 7.8 ppm [3]: 100% | inhibition at 0.5 ppm [4]: 0% | inhibition at 125 ppm [5]: 80% | inhibition at 7.8 ppm [6]: 15%

CC1CC1CC(=O)O (stereo not drawn)
inhibition at 0.5 ppm [1]: 0% | inhibition at 125 ppm [2]: 100% | inhibition at 7.8 ppm [3]: 100% | inhibition at 0.5 ppm [4]: 0% | inhibition at 125 ppm [5]: 0% | inhibition at 7.8 ppm [6]: 0%

C=C1CC1CC(=O)OCc1cccc(Oc2ccccc2)c1 (stereo not drawn)
inhibition at 0.5 ppm [1]: 50% | inhibition at 125 ppm [2]: 100% | inhibition at 7.8 ppm [3]: 100% | inhibition at 0.5 ppm [4]: 0% | inhibition at 125 ppm [5]: 50% | inhibition at 7.8 ppm [6]: 0%

C=C1CC1CCN (stereo not drawn)
inhibition at 0.5 ppm [1]: 25% | inhibition at 125 ppm [2]: 100% | inhibition at 7.8 ppm [3]: 100% | inhibition at 0.5 ppm [4]: 0% | inhibition at 125 ppm [5]: 75% | inhibition at 7.8 ppm [6]: 0%

C=C1C(CC(=O)OCc2cccc(Oc3ccccc3)c2)C1(F)F (stereo not drawn)
inhibition at 0.5 ppm [4]: 0% | inhibition at 125 ppm [5]: 25% | inhibition at 7.8 ppm [6]: 0%

C=C1CC1CCOC(=O)c1ccc(OCC)cc1 (stereo not drawn)
inhibition at 0.5 ppm [1]: 100% | inhibition at 125 ppm [2]: 100% | inhibition at 7.8 ppm [3]: 100% | inhibition at 0.5 ppm [4]: 0% | inhibition at 125 ppm [5]: 100% | inhibition at 7.8 ppm [6]: 0%

C=C1C(CC(=O)OCCCCCCCCCCCCCCCC)C1(F)F (stereo not drawn)
inhibition at 0.5 ppm [4]: 0% | inhibition at 125 ppm [5]: 0% | inhibition at 7.8 ppm [6]: 0%

C=C1CC1CC(N)=O (stereo not drawn)
inhibition at 0.5 ppm [1]: 0% | inhibition at 125 ppm [2]: 100% | inhibition at 7.8 ppm [3]: 100% | inhibition at 0.5 ppm [4]: 0% | inhibition at 125 ppm [5]: 100% | inhibition at 7.8 ppm [6]: 0%

C=C1CC1CC(=O)OCCCCCCCCCCCCCCCC (stereo not drawn)
inhibition at 0.5 ppm [1]: 100% | inhibition at 125 ppm [2]: 100% | inhibition at 7.8 ppm [3]: 100% | inhibition at 0.5 ppm [4]: 0% | inhibition at 125 ppm [5]: 100% | inhibition at 7.8 ppm [6]: 50%

C=C1C(CC(=O)O)C1(F)F (stereo not drawn)
inhibition at 0.5 ppm [4]: 0% | inhibition at 125 ppm [5]: 100% | inhibition at 7.8 ppm [6]: 0%

CNC(=O)O/N=C/C(C)(C)SC [ALDICARB]
LC50 [7]: 3.8 µg/mL (≈ 20 µM)
